Results published in patent US20230055237A1, “COMPOUNDS AND METHODS FOR THE TREATMENT OF CYSTIC FIBROSIS” (Flatley Discovery Lab, LLC, priority 2019, published 2023).

Biological target: T1, CFTR (Homo sapiens, UniProt P13569, DEL508-508)
T1 construct: Primary CF airway epithelial cells were obtained from the UNC Cystic Fibrosis Tissue Procurement and Cell Culture Core; host or cells: primary CF airway epithelial cells, differentiated at the air-liquid interface
Assay: Equivalent current assay in primary CF airway epithelial cells (NAUC, combination with 1st site corrector FDL169 or VX-809)
Format: cell-based
Conditions: 37° C., 24 h

[1] = test compound 10 μM in combination with 1st site corrector VX-809 (3 μM)
[2] = test compound 3 μM in combination with 1st site corrector VX-809 (3 μM)
[3] = test compound 1 μM in combination with 1st site corrector FDL169 (3 μM)
[4] = test compound 3 μM in combination with 1st site corrector FDL169 (3 μM)
[5] = test compound 10 μM in combination with 1st site corrector FDL169 (3 μM)
[6] = test compound 1 μM in combination with 1st site corrector VX-809 (3 μM)

T1 sequence (P13569 with tags, fused parts or gaps DEL508-508): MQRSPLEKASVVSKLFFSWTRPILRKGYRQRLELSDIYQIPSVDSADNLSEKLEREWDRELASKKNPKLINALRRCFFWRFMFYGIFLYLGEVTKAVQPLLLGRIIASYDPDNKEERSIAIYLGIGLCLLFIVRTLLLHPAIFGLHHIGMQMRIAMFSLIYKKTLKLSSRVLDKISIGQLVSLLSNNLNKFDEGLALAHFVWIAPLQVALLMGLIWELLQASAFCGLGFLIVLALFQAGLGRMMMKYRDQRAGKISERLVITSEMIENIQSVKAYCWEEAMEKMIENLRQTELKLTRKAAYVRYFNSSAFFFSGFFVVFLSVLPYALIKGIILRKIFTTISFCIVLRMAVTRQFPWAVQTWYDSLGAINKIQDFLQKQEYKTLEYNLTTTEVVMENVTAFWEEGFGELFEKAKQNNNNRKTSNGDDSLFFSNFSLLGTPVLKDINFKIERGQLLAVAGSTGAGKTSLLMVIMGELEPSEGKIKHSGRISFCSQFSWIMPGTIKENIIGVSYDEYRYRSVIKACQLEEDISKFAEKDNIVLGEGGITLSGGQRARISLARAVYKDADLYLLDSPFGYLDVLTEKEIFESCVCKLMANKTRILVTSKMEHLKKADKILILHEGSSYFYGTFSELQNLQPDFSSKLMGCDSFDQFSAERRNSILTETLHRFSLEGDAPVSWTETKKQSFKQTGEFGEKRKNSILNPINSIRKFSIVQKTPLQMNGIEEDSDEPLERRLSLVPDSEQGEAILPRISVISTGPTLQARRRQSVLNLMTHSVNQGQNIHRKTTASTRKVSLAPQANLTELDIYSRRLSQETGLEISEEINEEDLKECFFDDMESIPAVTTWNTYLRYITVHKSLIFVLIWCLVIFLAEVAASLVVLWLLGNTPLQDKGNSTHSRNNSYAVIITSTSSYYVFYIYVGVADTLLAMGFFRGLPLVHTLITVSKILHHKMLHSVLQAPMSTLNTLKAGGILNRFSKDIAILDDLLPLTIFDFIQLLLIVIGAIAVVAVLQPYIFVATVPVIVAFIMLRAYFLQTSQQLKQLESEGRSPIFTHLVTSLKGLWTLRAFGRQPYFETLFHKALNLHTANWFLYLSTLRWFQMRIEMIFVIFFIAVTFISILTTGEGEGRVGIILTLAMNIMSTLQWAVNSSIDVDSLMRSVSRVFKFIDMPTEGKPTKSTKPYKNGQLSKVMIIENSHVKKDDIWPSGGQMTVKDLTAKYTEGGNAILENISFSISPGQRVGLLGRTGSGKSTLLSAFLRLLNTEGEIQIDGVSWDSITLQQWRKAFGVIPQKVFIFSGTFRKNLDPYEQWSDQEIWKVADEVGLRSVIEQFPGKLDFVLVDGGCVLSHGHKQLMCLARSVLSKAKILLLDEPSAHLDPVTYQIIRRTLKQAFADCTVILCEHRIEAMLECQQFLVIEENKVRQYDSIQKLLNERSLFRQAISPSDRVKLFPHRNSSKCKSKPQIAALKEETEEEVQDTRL

Compound	Nauc @ 10 μM [1]	Nauc @ 3 μM [2]	further results
O=C(Nc1cc(Cl)cc(Cl)c1)C1C(C(F)(F)c2ccc(Cl)cc2)NC2(C(=O)Nc3c(Cl)cc(Cl)cc32)C1C(=O)O (stereo not shown) [Example 67.9a, 5,7-dichloro-5,7′-((4-chlorophenyl)difluoromethyl)-4′-((3,5-dichlorophenyl)carbamoyl)-2-oxospiro[indoline-3,2′-pyrrolidine]-3′-carboxylic acid]	+ (NAUC “+” refers to an observed NAUC <140% of positive control)	–	–
COc1c(Cl)cc(NC(=O)C2C3CC(C)(C)CN3C3(C(=O)Nc4c(Cl)cc(Cl)cc43)C2C(=O)O)cc1Cl (stereo not shown) [Example 14]	+++ (NAUC “+++” refers to an observed NAUC>170% of positive control)	+++ (NAUC “+++” refers to an observed NAUC>170% of positive control)	–
CC(C)(CN(C(=O)[C@H]1[C@H]2CC(F)(F)CN2[C@]2(C(=O)Nc3c(Cl)cc(Cl)cc32)[C@H]1C(=O)O)c1cc(Cl)cc(Cl)c1)C(F)(F)F [Example 154]	–	–	Nauc @ 1 μM [3]: +++ (NAUC “+++” refers to an observed NAUC>170% of positive control); Nauc @ 3 μM [4]: +++ (NAUC “+++” refers to an observed NAUC>170% of positive control); Nauc @ 10 μM [5]: + (NAUC “+” refers to an observed NAUC <140% of positive control)
O=C(Nc1cncc(C(F)(F)F)n1)C1C2CC3(CC3)CN2C2(C(=O)Nc3c(Cl)cc(Cl)cc32)C1C(=O)O (stereo not shown) [Example 2]	++ (NAUC “++” refers to an observed NAUC 170-140% of positive control)	+ (NAUC “+” refers to an observed NAUC <140% of positive control)	–
C[C@]1(O)CC2C(C(=O)Nc3cc(Cl)cc(Cl)c3)C(C(=O)O)C3(C(=O)Nc4c(Cl)cc(Cl)cc43)N2C1 (stereo partly shown) [Example 3]	+++ (NAUC “+++” refers to an observed NAUC>170% of positive control)	+++ (NAUC “+++” refers to an observed NAUC>170% of positive control)	–
COc1cc(C(F)(F)F)cc(NC(=O)C2C3CC(F)(F)CN3C3(C(=O)Nc4c(Cl)cc(Cl)cc43)C2C(=O)O)n1 (single isomer, unassigned) [Example 80.7a.1, 5,7-dichloro-6′,6′-difluoro-1′-((6-methoxy-4-(trifluoromethyl)pyridin-2-yl)carbamoyl)-2-oxo-1′,2′,5′,6′,7′,7a′-hexahydrospiro[indoline-3,3′-pyrrolizine]-2′-carboxylic acid]	+ (NAUC “+” refers to an observed NAUC <140% of positive control)	–	–
O=C(O)[C@H]1[C@@H](C(=O)N(c2cc(Cl)cc(Cl)c2)C2CC(O)C2)[C@H]2CC(F)(F)CN2[C@]12C(=O)Nc1c(Cl)cc(Cl)cc12 (stereo partly shown) [Example 158]	–	–	Nauc @ 1 μM [3]: + (NAUC “+” refers to an observed NAUC <140% of positive control); Nauc @ 3 μM [4]: + (NAUC “+” refers to an observed NAUC <140% of positive control)
O=C(Nc1cc(Cl)cc(Cl)c1)C1C2N(CCC2(F)F)C2(C(=O)Nc3c(Cl)cc(Cl)cc32)C1C(=O)O (stereo not shown) [Example 60]	+++ (NAUC “+++” refers to an observed NAUC>170% of positive control)	+++ (NAUC “+++” refers to an observed NAUC>170% of positive control)	–
CN(C(=O)C1C2CC(F)(F)CN2C2(C(=O)Nc3c(Cl)cc(Cl)cc32)C1C(=O)O)c1cc(C(F)(F)F)cc(C(F)(F)F)n1 (single isomer, unassigned) [Example 273b, 1′-((4,6-bis(trifluoromethyl)pyridin-2-yl)(methyl)carbamoyl)-5,7-dichloro-6′,6′-difluoro-2-oxo-1′,2′,5′,6′,7′,7a′-hexahydrospiro[indoline-3,3′-pyrrolizine]-2′-carboxylic acid]	–	–	Nauc @ 1 μM [3]: + (NAUC “+” refers to an observed NAUC <140% of positive control); Nauc @ 3 μM [4]: ++ (NAUC “++” refers to an observed NAUC 170-140% of positive control)
CN(C(=O)[C@H]1[C@@H](C(F)(F)F)NC2(C(=O)N(C)c3c(Cl)cc(Cl)cc32)[C@H]1C(=O)O)c1cc(Cl)cc(Cl)c1 (mixture of isomers) [Example 271, rac-(3′S,4′R,5′S)-5,7-dichloro-4′-((3,5-dichlorophenyl)(methyl)carbamoyl)-1-methyl-2-oxo-5′-(trifluoromethyl)spiro[indoline-3,2′-pyrrolidine]-3′-carboxylic acid]	+ (NAUC “+” refers to an observed NAUC <140% of positive control)	+++ (NAUC “+++” refers to an observed NAUC>170% of positive control)	Nauc @ 1 μM [6]: + (NAUC “+” refers to an observed NAUC <140% of positive control)
O=C(Nc1cc(Cl)cc(Cl)c1)C1C(C(F)(F)c2ccccn2)NC2(C(=O)Nc3c(Cl)cc(Cl)cc32)C1C(=O)O (stereo not shown) [Example 72.a]	+ (NAUC “+” refers to an observed NAUC <140% of positive control)	–	–
O=C(Nc1cc(Cl)cc(Cl)c1)C1C(C(F)(F)F)NC2(C(=O)Nc3c(Cl)cc(Cl)cc32)C1C(=O)O (stereo not shown) [Example 40]	+++ (NAUC “+++” refers to an observed NAUC>170% of positive control)	+++ (NAUC “+++” refers to an observed NAUC>170% of positive control)	–
O=C(Nc1cccc(O)c1)C1C2CC(F)(F)CN2C2(C(=O)Nc3c(Cl)cc(Cl)cc32)C1C(=O)O (stereo not shown) [Example 76.a]	+ (NAUC “+” refers to an observed NAUC <140% of positive control)	–	–
CC(=O)OCOC(=O)[C@H]1[C@@H](C(=O)N(C)c2cc(Cl)cc(Cl)c2)[C@H]2CC(F)(F)CN2[C@]12C(=O)Nc1c(Cl)cc(Cl)cc12 (single isomer, unassigned) [Example 256b]	+ (NAUC “+” refers to an observed NAUC <140% of positive control)	–	–
CN(C(=O)N1C(=O)C2(c3cc(Cl)cc(Cl)c31)C(C(=O)OCOC(=O)C(C)(C)C)CC1CC(F)(F)CN12)c1cc(Cl)cc(Cl)c1 (single isomer, unassigned) [Example 251b, (pivaloyloxy)methyl 5,7-dichloro-1-((3,5-dichlorophenyl)(methyl)carbamoyl)-6′,6′-difluoro-2-oxo-1′,2′,5′,6′,7′,7a′-hexahydrospiro[indoline-3,3′-pyrrolizine]-2′-carboxylate]	+ (NAUC “+” refers to an observed NAUC <140% of positive control)	–	–
CC(C)(C)c1cccc(CCNC(=O)C2C3N(CCC3(F)F)C3(C(=O)Nc4c(Cl)cc(Cl)cc43)C2C(=O)O)c1 (single isomer, unassigned) [Example 267, 1′-((3-(tert-butyl)phenethyl)carbamoyl)-5,7-dichloro-7′,7′-difluoro-2-oxo-1′,2′,5′,6′,7′,7a′-hexahydrospiro[indoline-3,3′-pyrrolizine]-2′-carboxylic acid]	+++ (NAUC “+++” refers to an observed NAUC>170% of positive control)	+++ (NAUC “+++” refers to an observed NAUC>170% of positive control)	Nauc @ 1 μM [6]: +++ (NAUC “+++” refers to an observed NAUC>170% of positive control)
O=C(O)[C@H]1[C@@H](C(=O)N(c2cc(Cl)cc(Cl)c2)C2CCCC2)[C@H]2CC(F)(F)CN2[C@]12C(=O)Nc1c(Cl)cc(Cl)cc12 [Example 175]	–	–	Nauc @ 1 μM [3]: +++ (NAUC “+++” refers to an observed NAUC>170% of positive control); Nauc @ 3 μM [4]: +++ (NAUC “+++” refers to an observed NAUC>170% of positive control); Nauc @ 10 μM [5]: +++ (NAUC “+++” refers to an observed NAUC>170% of positive control)
O=C(Nc1cccc(-c2ccccc2)c1)[C@H]1[C@H]2CC(F)(F)CN2[C@]2(C(=O)Nc3c(Cl)cc(Cl)cc32)[C@H]1C(=O)O [Example 124]	–	+++ (NAUC “+++” refers to an observed NAUC>170% of positive control)	Nauc @ 1 μM [6]: +++ (NAUC “+++” refers to an observed NAUC>170% of positive control)
